How the values were obtained:
[1] = system: MOG-induced mouse experimental autoimmune encephalomyelitis model; assay: MOG-induced mouse experimental autoimmune encephalomyelitis model, 30 mg/kg; assay type: in vivo; conditions: C57BL/6J mouse, MOG 35-55; 30 mg/kg orally twice daily for 16 days from three days before inoculation; scored 13 days after inoculation
Experimental: The action of the cyclohexane derivative (I) or the pharmaceutically acceptable salt thereof against an increase in the neurological symptom score in a MOG-induced mouse experimental autoimmune encephalomyelitis model was evaluated. The mouse experimental autoimmune encephalomyelitis model was prepared according to the method described in Journal of Neuroscience Research, 2006, Vol. 84, pp. 1225-1234 with partial modification. A MOG 35-55 administration solution, which was prepared by mixing equal volumes of a PBS solution containing a partially synthesized peptide of MOG (MOG 35-55; CS Bio Company Inc.) whose concentration was adjusted to 4 mg/mL and Freund's complete adjuvant, was intracutaneously inoculated to both lateral regions of each C57BL/6J mouse (male, 7-weeks old) (Charles River Laboratories Japan) in a total amount of 0.1 mL (0.05 mL per side). Further, on the day of inoculation of the MOG 35-55 administration solution, and two days thereafter, 200 μL of pertussis toxin (Sigma) whose concentration was adjusted to 1 μg/mL was intraperitoneally administered to each mouse. From three days before inoculation of the MOG 35-55 administration solution, Compound 3 was orally administered to mice twice daily at a dose of 30 mg/kg for 16 successive days. Compound 3 was used as a suspension in 0.5% methylcellulose solution. The group in which Compound 3 was administered to mice was provided as the Compound 3 administration group. To provide a vehicle administration group, 0.5% methylcellulose solution was administered in the same manner. Thirteen days after inoculation of the MOG 35-55 administration solution, the neurological symptom score was scored (0: normal, 1: limp tail or hind limb weakness, 2: limp tail and hind limb weakness, 3: partial hind limb paralysis, 4: complete hind limb paralysis, 5: moribund state). […] Comparative Control Compound 1 and Comparative Control Compound 2 were similarly evaluated. […] Thirteen days after inoculation of the MOG 35-55 administration solution, the neurological symptom score was scored.

[2] = system: PLP-induced mouse experimental autoimmune encephalomyelitis model; assay: PLP-induced mouse experimental autoimmune encephalomyelitis model; assay type: in vivo; conditions: SJL mouse, PLP 139-151; 10 mg/kg orally twice daily for 7 days from two days after inoculation; scored 9 days after inoculation
Experimental: Action of the cyclohexane derivative (I) or the pharmaceutically acceptable salt thereof against an increase in the neurological symptom score in a PLP-induced mouse experimental autoimmune encephalomyelitis model was evaluated. The mouse experimental autoimmune encephalomyelitis model was prepared according to the method described in International Immunology, 1997, Vol. 9, pp. 1243-1251 with partial modification. A PLP 139-151 administration solution, which was prepared by mixing equal volumes of a PBS solution containing a partially synthesized peptide of PLP (PLP 139-151; Kokusan Chemical Co., Ltd.) whose concentration was adjusted to 2 mg/mL and Freund's complete adjuvant, was intracutaneously inoculated to both lateral regions of each SJL mouse (female, 6-weeks old) (Charles River Laboratories Japan) in a total amount of 0.1 mL (0.05 mL per side). Further, on the day of inoculation of the PLP 139-151 administration solution, and two days thereafter, 200 μL of pertussis toxin (Sigma) whose concentration was adjusted to 1 μg/mL was intraperitoneally administered to each mouse. […] Nine days after inoculation of the PLP 139-151 administration solution, the neurological symptom score was scored (0: normal, 1: limp tail or hind limb weakness, 2: limp tail and hind limb weakness, 3: partial hind limb paralysis, 4: complete hind limb paralysis, 5: moribund state). […]

[3] = system: MOG-induced mouse experimental autoimmune encephalomyelitis model; assay: MOG-induced mouse experimental autoimmune encephalomyelitis model, 3 mg/kg and 10 mg/kg; assay type: in vivo; conditions: C57BL/6J mouse, MOG 35-55, scored 14 days after inoculation
Experimental: Action of the cyclohexane derivative (I) or the pharmaceutically acceptable salt thereof against an increase in the neurological symptom score in a MOG-induced mouse experimental autoimmune encephalomyelitis model was evaluated. A MOG 35-55 administration solution, which was prepared by mixing equal volumes of a PBS solution containing a partially synthesized peptide of MOG (MOG 35-55; CS Bio Company Inc.) whose concentration was adjusted to 4 mg/mL and Freund's complete adjuvant, was intracutaneously inoculated to both lateral regions of each C57BL/6J mouse (male, 10-weeks old) (Charles River Laboratories Japan) in a total amount of 0.1 mL (0.05 mL per side). Further, on the day of inoculation of the MOG 35-55 administration solution, and two days thereafter, 200 μL of pertussis toxin (Sigma) whose concentration was adjusted to 1 μg/mL was intraperitoneally administered to each mouse. As a test compound, Compound 3 was used. […] Fourteen days after inoculation of the MOG 35-55 administration solution, the neurological symptom score was scored (0: normal, 1: limp tail or hind limb weakness, 2: limp tail and hind limb weakness, 3: partial hind limb paralysis, 4: complete hind limb paralysis, 5: moribund state). […]

thrombin = target: T1, thrombin (Homo sapiens, UniProt P00734); assay: Thrombin activity assay (SensoLyte 520 kit, FRET); assay type: biochemical; conditions: at the maximum concentration, 30 μmol/L; read-out: thrombin activity inhibition rate
T1 construct: purchased Anaspec Inc
Experimental: The action of the cyclohexane derivative (I) or the pharmaceutically acceptable salt thereof on the thrombin activity was evaluated using a SensoLyte (registered trademark) 520 thrombin activity assay kit manufactured by Anaspec Inc., which utilizes fluorescence resonance energy transfer (FRET).
The test compound was dissolved in dimethylsulfoxide (hereinafter referred to as DMSO), and diluted with the assay buffer included in the kit to a final DMSO concentration of 0.5 to 1%. […] Thereafter, the fluorescence value was measured by excitation at 485 nm and detection at 520 nm.
The thrombin activity inhibition rate (%) was calculated according to Equation 1, and regression analysis was carried out to obtain a sigmoid curve (variable slope), thereby calculating the IC50 value of the thrombin activity inhibition by the test compound: Thrombin activity inhibition rate (%)=(1−((fluorescence value in the presence of both thrombin and the test compound)−(fluorescence value in the absence of both thrombin and the test compound))/((fluorescence value in the presence of thrombin and absence of the test compound)−(fluorescence value in the absence of both thrombin and the test compound)))×100 Equation 1.

inhibition at 30 µM (thrombin) [%]	SMILES	rate of suppression of exacerbation of neurological symptoms [1] [%]	rate of suppression of exacerbation of neurological symptoms [2] [%]	rate of suppression of exacerbation of neurological symptoms ([3]; 3 mg/kg orally twice daily for 12 days from two days after inoculation) [%]	rate of suppression of exacerbation of neurological symptoms ([3]; 10 mg/kg orally twice daily for 12 days from two days after inoculation) [%]
–	COc1ccc(-n2nc(C3(O)CCC(O)CC3)cc2-c2ccccc2C)cc1 (stereo not shown) [Comparative Control Compound 2]	6.5	–	–	–
–	COc1ccc(-n2nc(C3(O)CCNCC3)cc2-c2ccc(C)cc2)cc1 [Comparative Control Compound 1]	3.3	–	–	–
17.2	COc1ccc(-n2nc(C3(O)CCC(O)CC3)cc2-c2ccc(C)cc2)cc1 (stereo not drawn) [Compound 3, 1-(1-(4-methoxyphenyl)-5-(p-tolyl)-1H-pyrazol-3-yl)cyclohexane-cis-1,4-diol]	85.7	66.4	53.8	61.5

From patent US10130608B2, “Methods of treating or preventing multiple sclerosis” (Toray Industries, Inc., priority 2014, dated 2018)
